Where “and” joins values, the source holds several entries; their conditions need not be identical. Equal entries are not always repeated. After the bases stand the sugars from the 5' end (letter, count) and the backbone: PS all phosphorothioate, else s phosphorothioate and o phosphodiester by linkage. Methylation of C is not given here. e = 2'-O-(2-methoxyethyl) (MOE); k = constrained ethyl (cEt); d = 2'-deoxy (DNA)
Biological target: IRF4
Details: ASO

Sequence	target mRNA inhibition (SK-MEL-28, 4 µM) [%]	further results
GCGGATAGATCTGTGG (sugars k3 d10 k3, PS)	55	–
GCTAACTGGCCTCAAA (sugars k3 d10 k3, PS)	9	–
GCTACGCAATCTTCTG (sugars k3 d10 k3, PS)	58	–
GCTAGATAGCATTCTT (sugars k3 d10 k3, PS)	56	–
GCTCACTAAGCTTGAT (sugars k3 d10 k3, PS)	56	–
GCTCAGCGCAGATGGG (sugars k3 d10 k3, PS)	-2	–
GCTCATCCCGTCCAGC (sugars k3 d10 k3, PS)	15	–
GCTCATGGCTGATAAT (sugars k3 d10 k3, PS)	–	target mRNA inhibition (MM.1R, 1 µM): -17%
GCTCCCGACACGCGCC (sugars k3 d10 k3, PS)	–	target mRNA inhibition (MM.1R, 1 µM): 3% and 19%
GCTGAACTGTGTAATG (sugars k3 d10 k3, PS)	58	–
GCTGAATGCTCTCCAT (sugars k3 d10 k3, PS)	52	–
GCTGAGAGTTCAGGTC (sugars k3 d10 k3, PS)	–	target mRNA inhibition (MM.1R, 1 µM): 7%
GCTGATAATTAATCTG (sugars k3 d10 k3, PS)	–	target mRNA inhibition (MM.1R, 1 µM): -9%
GCTGATGGAGAAACGA (sugars k3 d10 k3, PS)	7	–
GCTGTCGATCTGGTCG (sugars k3 d10 k3, PS)	9	–
GCTGTCGATCTGGTCG (sugars k4 d8 k4, PS)	6	–
GCTTCCCGTTGCCGCA (sugars k3 d10 k3, PS)	18	–
GGAAAGAGGCACCCTC (sugars k3 d10 k3, PS)	28	–
GGAAGCACTGGCATTG (sugars k3 d10 k3, PS)	49	–
GGAAGTTTACACTGGA (sugars k3 d10 k3, PS)	85	target mRNA inhibition (MM.1R, 0.0625 µM): 41% and 42%; target mRNA inhibition (MM.1R, 0.25 µM): 66% and 68%; target mRNA inhibition (MM.1R, 0.666 µM): 79% and 94%; target mRNA inhibition (MM.1R, 2 µM): 95% and 98%; target mRNA inhibition (MM.1R, 4 µM): 91%
GGAAGTTTACACTGGA (sugars kddddddddddkekek, PS)	–	target mRNA inhibition (MM.1R, 1 µM): 33%

Sequence	target mRNA inhibition (SK-MEL-28, 4 µM) [%]	further results
GGACAGCCAAACAAAC (sugars k3 d10 k3, PS)	7	–
GGACCTGGTCCAGGTT (sugars k3 d10 k3, PS)	-2	–
GGACCTGGTCCAGGTT (sugars k4 d8 k4, PS)	-28	–
GGACGAACGCGCAAAA (sugars k3 d10 k3, PS)	35	–
GGAGAAACGAGCCAGT (sugars k3 d10 k3, PS)	47	–
GGAGAAGTCCCGTGGA (sugars k3 d10 k3, PS)	59	–
GGAGAATTAAGAAGAC (sugars k3 d10 k3, PS)	32	–
GGAGATCCGGCAGCCC (sugars k3 d10 k3, PS)	23	–
GGAGCTAGTTTTATGT (sugars k3 d10 k3, PS)	–	target mRNA inhibition (MM.1R, 1 µM): -28%
GGAGTACCCGCAGAGA (sugars k3 d10 k3, PS)	25	–
GGATGCCACCATCCCA (sugars k3 d10 k3, PS)	-5	–
GGATTGATGTGATAGC (sugars k3 d10 k3, PS)	–	target mRNA inhibition (MM.1R, 0.0625 µM): 7% and 24%; target mRNA inhibition (MM.1R, 0.25 µM): 24% and 20%; target mRNA inhibition (MM.1R, 1 µM): 59% and 60%; target mRNA inhibition (MM.1R, 4 µM): 88%
GGCAACCATTTTCACA (sugars k3 d10 k3, PS)	-17	–
GGCAACCTGCATTTGC (sugars k3 d10 k3, PS)	-13	–
GGCAAGTTCTGCTGTC (sugars k3 d10 k3, PS)	58	–
GGCACAAGCATAAAAG (sugars k3 d10 k3, PS)	1	–
GGCACAGACATACCTA (sugars k3 d10 k3, PS)	48	–
GGCACAGCCGTCCGCC (sugars k3 d10 k3, PS)	11	–
GGCACATCAATGTTTT (sugars kkdddddddddkdkdk, PS)	–	target mRNA inhibition (MM.1R, 1 µM): 26% and 16%
GGCACATCAATGTTTT (sugars kkdddddddddkekek, PS)	–	target mRNA inhibition (MM.1R, 1 µM): 23% and 19%
GGCACTACTTCCAAAA (sugars k3 d10 k3, PS)	31	–

— the OligoGym collection
